Measurements: ChEMBL document CHEMBL1201862, “PubChem BioAssay data set” (2004)
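The compound was tested at five concentrations on cells cultured in 96-well plates, with a 48-hour exposure period. At the GI50, growth is halved.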 Calls of active or inactive are those of the source. No stated cut-off is given here; in the data, active = GI50 up to about 1.1 µM and inactive = higher. Where a SMILES comes first, the peptide text is derived from it. The star is where a group is joined. Fmoc = O=C(OCC1c2ccccc2-c2ccccc21)*; Boc = CC(C)(C)OC(=O)*

What was measured:
Experiment in all cases: growth of human tumour cells (NCI), 48 h
[1] = system: 786-0
[2] = system: ACHN
[3] = system: BT-549
[4] = system: HCT-116
[5] = system: HCT-15
[6] = system: HL-60
[7] = system: HOP-92
[8] = system: KM12
[9] = system: M14
[10] = system: MDA-MB-435
[11] = system: Malme-3M
[12] = system: OVCAR-5
[13] = system: SF-268
[14] = system: SF-295
[15] = system: SF-539
[16] = system: SK-MEL-5
[17] = system: SNB-75
[18] = system: SR
[19] = system: T47D
[20] = system: U-251

SMILES	GI50 [1]	GI50 [2]	GI50 [3]	GI50 [4]	GI50 [5] [µM]	GI50 [6]	GI50 [7]	GI50 [8]	GI50 [9]	GI50 [10]	GI50 [11]	GI50 [12]	GI50 [13]	GI50 [14]	GI50 [15]	GI50 [16]	GI50 [17]	GI50 [18]	GI50 [19]	GI50 [20]
C[C@]12CCC(=O)C=C1CC[C@@H]1[C@@H]2CC[C@]2(C)C(=O)/C(=C/c3ccncc3)C[C@@H]12	15.1 µM (inactive)	14.8 µM (inactive)	19.2 µM (inactive)	10.6 µM (inactive)	15.3	8.51 µM (inactive)	19.1 µM (inactive)	13.4 µM (inactive)	14.6 µM (inactive)	17.1 µM (inactive)	15.7 µM (inactive)	16.9 µM (inactive)	18.8 µM (inactive)	15.3 µM (inactive)	7.4 µM (inactive)	8.97 µM (inactive)	19.6 µM (inactive)	4.75 µM (inactive)	15.9 µM (inactive)	12.4 µM (inactive)
O=C(NC1(C(=O)O)CC1c1ccccc1)c1ccccc1 (stereo not drawn)	> 100 µM (inactive)	> 100 µM (inactive)	> 100 µM (inactive)	> 100 µM (inactive)	> 100	> 100 µM (inactive)	> 100 µM (inactive)	> 100 µM (inactive)	> 100 µM (inactive)	> 100 µM (inactive)	> 100 µM (inactive)	> 100 µM (inactive)	> 100 µM (inactive)	> 100 µM (inactive)	> 100 µM (inactive)		> 100 µM (inactive)	> 100 µM (inactive)	> 100 µM (inactive)	> 100 µM (inactive)
COC(O)C12OC3CO[Si](C(C)C)(C(C)C)O[Si](C(C)C)(C(C)C)OC3C1Oc1nc(=O)ccn12 (stereo not drawn)	15.2 µM (inactive)	14.1 µM (inactive)	15.5 µM (inactive)	8.61 µM (inactive)	16.3	3.29 µM (inactive)	10.1 µM (inactive)	5.61 µM (inactive)	12.7 µM (inactive)	12.3 µM (inactive)	13.1 µM (inactive)	15.7 µM (inactive)	9.91 µM (inactive)	12.2 µM (inactive)	15.7 µM (inactive)	7.87 µM (inactive)	26.2 µM (inactive)	1.23 µM (inactive)	7.69 µM (inactive)	> 31.7 µM (inactive)
O=S1(=O)Cc2ccc3c4c2-c2c(ccc5ccc(c-4c25)CS(=O)(=O)C3)C1	49.5 µM (inactive)	20.7 µM (inactive)	91.8 µM (inactive)	46.3 µM (inactive)	22.9	16.3 µM (inactive)	89.9 µM (inactive)	41.9 µM (inactive)	> 100 µM (inactive)	> 100 µM (inactive)	> 100 µM (inactive)	> 100 µM (inactive)	53.1 µM (inactive)	> 100 µM (inactive)	51.9 µM (inactive)		69.7 µM (inactive)	10.2 µM (inactive)	55.3 µM (inactive)	> 100 µM (inactive)
CCOC(=O)/C(C#N)=C\c1ccc(N(CCC(=O)O)CCC(=O)O)c(I)c1	> 10 µM (inactive)	> 10 µM (inactive)	> 10 µM (inactive)	> 10 µM (inactive)	> 10	> 10 µM (inactive)	> 10 µM (inactive)	> 10 µM (inactive)	> 10 µM (inactive)	> 10 µM (inactive)	> 10 µM (inactive)		> 10 µM (inactive)	> 10 µM (inactive)	> 10 µM (inactive)	> 10 µM (inactive)	> 10 µM (inactive)	> 10 µM (inactive)	> 10 µM (inactive)	
CC(=O)NC1C(OC2C(CO)OC(OCC3OC(n4ccc(N)nc4=O)C(O)C3O)C(NC(C)=O)C2O)OC(CO)C(O)C1O (stereo not drawn)	> 100 µM (inactive)	99.8 µM (inactive)	> 100 µM (inactive)	> 100 µM (inactive)	> 100	> 34.6 µM (inactive)	> 100 µM (inactive)	> 100 µM (inactive)	> 100 µM (inactive)	> 100 µM (inactive)	5.97 µM (inactive)	> 100 µM (inactive)	> 100 µM (inactive)	> 100 µM (inactive)	> 100 µM (inactive)	> 100 µM (inactive)	> 100 µM (inactive)	> 100 µM (inactive)	> 100 µM (inactive)	> 100 µM (inactive)
CC(C)(C)OC(=O)NCCCCC(NC(=O)C(Cc1c[nH]c2ccccc12)NC(=O)OCC1c2ccccc2-c2ccccc21)C(=O)O (stereo not drawn) (Fmoc-Trp-Lys(Boc)-OH; configuration not given here)	80 µM (inactive)	> 100 µM (inactive)	35.6 µM (inactive)	32 µM (inactive)	> 100	15.5 µM (inactive)	23.8 µM (inactive)	47.8 µM (inactive)	77.3 µM (inactive)	49.5 µM (inactive)	47.8 µM (inactive)	> 100 µM (inactive)	32.5 µM (inactive)	62.7 µM (inactive)	42.3 µM (inactive)	90.2 µM (inactive)	55 µM (inactive)	21.9 µM (inactive)	54.7 µM (inactive)	17.1 µM (inactive)
CCOC(=O)COC1=Nc2cc(OC)c(OC)c3nc(Cl)cc(c23)C1=O	1.62 µM (inactive)	1.66 µM (inactive)	1.95 µM (inactive)	1.67 µM (inactive)	2.34	0.252 µM (active)	1.7 µM (inactive)	14.8 µM (inactive)	1.65 µM (inactive)	1.4 µM (inactive)	1.36 µM (inactive)	1.94 µM (inactive)	2.37 µM (inactive)	10 µM (inactive)	1.92 µM (inactive)	1.88 µM (inactive)	2.51 µM (inactive)	0.94 µM (active)	2.96 µM (inactive)	2.94 µM (inactive)
CN(C)CCSS(=O)(=O)O	> 100 µM (inactive)	> 100 µM (inactive)	> 100 µM (inactive)	> 100 µM (inactive)	> 100	> 100 µM (inactive)	> 100 µM (inactive)	> 100 µM (inactive)	> 100 µM (inactive)	> 100 µM (inactive)	> 100 µM (inactive)	> 100 µM (inactive)	> 100 µM (inactive)	13.3 µM (inactive)	> 100 µM (inactive)	> 100 µM (inactive)	< 0.01 µM (active)	> 100 µM (inactive)	> 100 µM (inactive)	30.2 µM (inactive)
O=[N+]([O-])c1ccc(-c2nc(/C=N/N3CCCCC3)cs2)o1	> 100 µM (inactive)	> 100 µM (inactive)	92.5 µM (inactive)	34.1 µM (inactive)	32.6	20.1 µM (inactive)	> 100 µM (inactive)	33.9 µM (inactive)	37.4 µM (inactive)	27.7 µM (inactive)	22.8 µM (inactive)	> 100 µM (inactive)	> 100 µM (inactive)	> 100 µM (inactive)	> 100 µM (inactive)	18 µM (inactive)	> 100 µM (inactive)	30.9 µM (inactive)	90.2 µM (inactive)	> 100 µM (inactive)
CC(=O)Oc1c(-c2ccccc2)sc2ccccc12	15.6 µM (inactive)	15.6 µM (inactive)	21.4 µM (inactive)	13.4 µM (inactive)	16.6	18 µM (inactive)	15.1 µM (inactive)	18.4 µM (inactive)	> 10 µM (inactive)	25 µM (inactive)	18.2 µM (inactive)	29.2 µM (inactive)	23 µM (inactive)	18.6 µM (inactive)	20.6 µM (inactive)	18.5 µM (inactive)	15.8 µM (inactive)	10.1 µM (inactive)	10.7 µM (inactive)	18 µM (inactive)
COc1ccc(OC)c2c1-c1nnnn1CCC2(C)C	> 100 µM (inactive)	> 100 µM (inactive)	> 100 µM (inactive)	> 100 µM (inactive)	> 100	> 100 µM (inactive)	> 100 µM (inactive)	> 100 µM (inactive)	> 100 µM (inactive)	> 100 µM (inactive)	> 100 µM (inactive)	> 100 µM (inactive)	> 100 µM (inactive)	> 100 µM (inactive)	> 100 µM (inactive)		> 100 µM (inactive)	> 100 µM (inactive)	> 100 µM (inactive)	> 100 µM (inactive)
COc1ccc(CC[N+]2(C)COc3cc4oc(=O)cc(C)c4cc3C2)cc1OC (stereo not drawn)	> 100 µM (inactive)	> 100 µM (inactive)	> 100 µM (inactive)	> 100 µM (inactive)	> 100	> 100 µM (inactive)	> 100 µM (inactive)	> 100 µM (inactive)	> 100 µM (inactive)	> 100 µM (inactive)	> 100 µM (inactive)	> 100 µM (inactive)	> 100 µM (inactive)	> 100 µM (inactive)		> 100 µM (inactive)	> 100 µM (inactive)	0.0782 µM (active)	> 100 µM (inactive)	> 100 µM (inactive)
Cc1cccc(Nc2cc(Cl)nc(SCC(=O)O)n2)c1C [PIRINIXIC ACID]	> 100 µM (inactive)	> 100 µM (inactive)	> 100 µM (inactive)	> 100 µM (inactive)	> 100	> 100 µM (inactive)	> 100 µM (inactive)	> 100 µM (inactive)	> 100 µM (inactive)	> 100 µM (inactive)	> 100 µM (inactive)	> 100 µM (inactive)		> 100 µM (inactive)	> 100 µM (inactive)	> 100 µM (inactive)	> 100 µM (inactive)	> 100 µM (inactive)	> 100 µM (inactive)	> 100 µM (inactive)
